According to article PMC10396970, “Metal-dependent enzyme symmetry guides the biosynthetic flux of terpene precursors” (Nature Chemistry, 2023):

Experiments:
[1] = biological target: T1, PcIDS1 (Phaedon cochleariae, UniProt M1JS91); assay: crystal structure; type: binding
T1 construct: N-terminal signal peptide (residues 1-85) removed; N-terminal His6-SUMO tag cut with Ulp1; E. coli BL21(DE3); homodimer; C-terminal residue A429
T1 sequence (M1JS91 86-429): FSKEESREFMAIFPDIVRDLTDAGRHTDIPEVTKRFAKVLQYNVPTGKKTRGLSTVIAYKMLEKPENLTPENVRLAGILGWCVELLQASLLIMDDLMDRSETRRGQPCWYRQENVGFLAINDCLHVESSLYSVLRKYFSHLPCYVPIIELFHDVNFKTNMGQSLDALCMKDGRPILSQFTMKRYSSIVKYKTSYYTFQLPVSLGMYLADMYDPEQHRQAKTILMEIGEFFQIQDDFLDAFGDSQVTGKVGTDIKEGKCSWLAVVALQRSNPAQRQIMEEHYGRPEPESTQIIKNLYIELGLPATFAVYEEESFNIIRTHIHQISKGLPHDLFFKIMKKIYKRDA

[2] = biological target: T1, PcIDS1; assay: thermal shift assay (Sypro Orange); type: binding; settings: 5 mM MgCl2, pH 7.0

**Q.** How did the crystal structure ([1]; Mg2+, IPP added but not bound, allylic site) turn out when `CC(C)=CCC/C(Br)=C/COP(=O)(O)OP(=O)(O)O` [3-Br-GPP] was run?
**A.** The crystal structure was 3-Br-GPP mimics GPPAl coordination.

**Q.** How did the dTm [2] turn out when `CC(C)=CCC/C(C)=C/CC/C(C)=C/COP(=O)(O)OP(=O)(O)O` [FPP, farnesyl pyrophosphate] was run?
**A.** Its dTm is 7 °C.

**Q.** With `CC(C)=CCC/C(C)=C/COP(=O)(O)OP(=O)(O)O` [GPP, geranyl pyrophosphate] as the molecule, how does the crystal structure ([1]; Mn2+, second site, allosteric) read?
**A.** Its crystal structure is “contains well-defined electron density for a second GPP molecule (GPPAllo; Fig. 3h)”.

**Q.** What about the dTm ([2]; allylic site in the structure) of the same molecule?
**A.** Its dTm is 17 °C.

**Q.** With `C=C(C)CCOP(=O)(O)OP(=O)(O)O` [IPP, isopentenyl pyrophosphate] as the molecule, how does the dTm ([2]; allylic and homoallylic sites) read?
**A.** The dTm was 7 °C.

**Q.** With `O=P(O)(O)C(O)(Cn1ccnc1)P(=O)(O)O` [ZOL, zoledronic acid] as the molecule, how does the dTm ([2]; 200 µM ligand, allylic site) read?
**A.** Its dTm is 28 °C.
